This note sets out measurements from PMC4772718 (Bioconjugate chemistry, 2015).

This assay deals with Bruton's tyrosine kinase (Btk) (Homo sapiens, UniProt Q06187). In words: IC50. It counts as biochemical.
Sequence of Bruton's tyrosine kinase (Btk) (Q06187 2-659): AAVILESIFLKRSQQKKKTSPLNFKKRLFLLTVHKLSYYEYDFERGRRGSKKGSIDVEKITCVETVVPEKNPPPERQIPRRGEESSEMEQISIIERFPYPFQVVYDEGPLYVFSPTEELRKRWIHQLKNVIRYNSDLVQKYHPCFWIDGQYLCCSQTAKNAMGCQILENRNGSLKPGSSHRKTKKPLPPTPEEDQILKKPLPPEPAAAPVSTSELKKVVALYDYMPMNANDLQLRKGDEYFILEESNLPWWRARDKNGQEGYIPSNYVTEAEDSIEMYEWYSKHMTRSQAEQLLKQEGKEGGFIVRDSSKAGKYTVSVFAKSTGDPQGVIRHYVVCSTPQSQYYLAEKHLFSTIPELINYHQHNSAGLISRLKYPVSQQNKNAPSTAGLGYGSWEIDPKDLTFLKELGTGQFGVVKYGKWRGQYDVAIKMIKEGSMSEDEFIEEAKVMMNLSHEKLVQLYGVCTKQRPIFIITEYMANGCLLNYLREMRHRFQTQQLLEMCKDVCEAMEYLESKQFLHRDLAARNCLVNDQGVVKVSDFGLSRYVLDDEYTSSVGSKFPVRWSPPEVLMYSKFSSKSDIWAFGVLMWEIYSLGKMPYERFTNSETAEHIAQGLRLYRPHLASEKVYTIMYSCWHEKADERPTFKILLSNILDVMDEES

Consider AVL-292-SiR-COOH, for which the IC50 was 284 nM.

For orientation: IC50 means the concentration needed to halve the response being measured. Higher therefore signals a need for much substance.
